Data: paper PMC4412288, “Crystal Structures of the Carboxyl cGMP Binding Domain of the Plasmodium falciparum cGMP-dependent Protein Kinase Reveal a Novel Capping Triad Crucial for Merozoite Egress” (PLoS Pathogens, 2015)

What was measured:
[1] = molecular target: T1, PfCNB-C (residues 275–428) (Plasmodium falciparum, UniProt Q8I719); assay: FP binding measurements, isolated PfCNB-C domain
T1 construct: 275–428 for CNB-C; His-tag (pQTEV, TEV site) (N, cleaved yes); made in house; host or cells: E. coli TP2000 (delta-cya)
T1 sequence (Q8I719 275-428): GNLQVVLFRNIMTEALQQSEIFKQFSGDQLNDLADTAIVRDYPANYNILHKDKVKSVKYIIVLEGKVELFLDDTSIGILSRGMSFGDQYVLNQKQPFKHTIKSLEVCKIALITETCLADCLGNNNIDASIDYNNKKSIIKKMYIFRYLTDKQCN
Excerpt: A manually designed construct consisting of PfPKG amino acids 1–853 with codons optimized for expression in E.coli was synthesized at Life Technologies. All PfPKG constructs were ligated into the His-tagged bacterial expression vector, pQTEV [28]. In designing the expression constructs of each CNB, we used the sequence of the cGMP selective CNB-B that we recently reported. The domain boundaries for the individual constructs are: residues 1–173 for CNB-A, 158–294 for CNB-B, 275–428 for CNB-C and 401–542 for CNB-D. All PfPKG proteins were expressed in TP2000 E. coli. The cells were grown at 37 °C to an OD600nm of 0.6, then induced with 0.5 mM IPTG, and grown for an additional 10 hours at 25 °C. Cells were harvested by centrifugation, then resuspended in 50 mM potassium phosphate (pH 7.5), 500 mM NaCl and 1 mM β-mercaptoethanol, and lysed using a cell disruptor (Constant Systems).
The direct fluorescence polarization (FP) assay was performed following the procedure from Moll et al. Measurements were performed in 150 mM NaCl, 20 mM MOPS plus 0.005% (w/v) CHAPS pH 7.0 using the Fusion a-FP microtiter plate reader at room temperature in a 384 well microtiterplate (Perkin Elmer, Optiplate, black). The protein concentration was varied while the concentration of 8-Fluo-cAMP/8-Fluo-cGMP (Biolog Life Science Institute (Bremen, Germany)) was fixed at 1–5 nM. […] The KD values were calculated from sigmoidal dose-response curves.
For competition FP experiments, the protein concentration and the concentration of 8-Fluo-cGMP were fixed to give a polarization signal that was 50% of the maximum value obtained from direct FP measurements. […] FP signals were detected as indicated above. Data were analyzed with GraphPad Prism 5.03 by plotting the polarization signal in mPol against the logarithm of the cyclic nucleotide concentration. The EC50 values were calculated from sigmoidal dose-response curves.

[2] = tested on: P. falciparum PfPKGT618Q/R484A/Q532A/D533A-3xHA transgenic line; assay: Growth assay in presence of compound 2, triple mutant line; type: cell-based, Plasmodium falciparum; conditions: 1 μM; duration of the experiment 7 days
Description: (§1) P. falciparum lines 3D7/attB [22], 3D7/PfPKGT618Q [6], and 3D7/PfPKG-HA [35] were cultured according to standard procedures in human A+ erythrocytes (National Blood Transfusion Service, UK) and RPMI 1640 medium supplemented with 0.5% Albumax type II (Lifetech) and 5 nM WR99210 (Jacobus Pharmaceuticals, New Jersey).
(§2) P. falciparum cultures were synchronised by repeated sorbitol lysis, then either compound 2 (1μM) or DMSO was added to late trophozoites / early schizonts and cultures harvested 16h later to count newly formed ring stage parasites. Cells were fixed in 4% formaldehyde/0.1% glutaraldehyde in PBS for 30 minutes at room temperature, stained with SYBR green (Lifetech) diluted 1:10000 in PBS for 30 minutes, washed with PBS and analysed on a FACSCalibur cell analyser (Becton Dickinson). FACS data were analysed using FlowJo software. For growth assays, starting parasitaemia was 0.2% ring stages and cultured in presence or absence of compound 2 (1 μM). Samples were taken every 48h and fixed, stained, and analyzed as described above.

[3] = tested on: P. falciparum PfPKGT618Q/R484A-3xHA transgenic line; assay: Growth assay in presence of compound 2, R484A line; type: cell-based, Plasmodium falciparum; conditions: 1 μM; duration of the experiment 7 days
Description: as §1, §2

[4] = tested on: P. falciparum transgenic lines with the capping triad mutations; assay: Schizont accumulation assay, capping triad mutant lines; type: cell-based, Plasmodium falciparum; conditions: 1 μM; Giemsa-stained blood films
Description: as §2, with “Cells were fixed in 4% formaldehyde/0.1% glutaraldehyde in PBS for 30 minutes at room temperature, stained with SYBR green (Lifetech) diluted 1:10000 in PBS for 30 minutes, washed with PBS and analysed on a FACSCalibur cell analyser (Becton Dickinson).” left out

[5] = tested on: P. falciparum PfPKGT618Q-3xHA control line; assay: Growth assay in presence of compound 2, T618Q-3xHA control line; type: cell-based, Plasmodium falciparum; conditions: 1 μM; duration of the experiment 7 days
Description: as §1, §2

[6] = tested on: PfPKG T618Q mutant; design: method as in PMID 18532880, PMID 19915077, PMID 23675297, PMID 24594931; conditions: T618Q gatekeeper substitution; cited from earlier work
[7] = tested on: P. falciparum PfPKGT618Q replacement line and PfPKGT618Q-3xHA control line; assay: Schizont accumulation assay, T618Q lines; type: cell-based, Plasmodium falciparum; conditions: 1 μM; Giemsa-stained blood films

Row | SMILES | affinity of PfCNB-C for the fluorescent nucleotide [1] | parasite growth in the presence of compound [2] | parasite growth in the presence of compound [3] | progression from schizont to ring stage parasites [4] | parasite growth in the presence of compound [5] | sensitivity of the kinase to the inhibitor [6] | ring stage parasites observed [7]
1 | Nc1ncnc2c1nc(SCCNC(=S)Nc1ccc(-c3c4ccc(=O)cc-4oc4cc(O)ccc34)c(C(=O)O)c1)n2C1OC2COP(=O)(O)OC2C1O (stereo not shown) [8-Fluo-cAMP] | very weak affinity | – | – | – | – | – | –
2 | CN(C)Cc1ccn2c(-c3ccnc(N)n3)c(-c3ccc(F)cc3)nc2c1 [compound 2] | – | did not proliferate | did not proliferate | did not progress to ring stage parasites | able to grow at a similar rate to the allelic replacement control line | no longer sensitive | high levels of ring stage parasites
